# Source: US20140200188A1, “2'-FLUORO SUBSTITUTED CARBA-NUCLEOSIDE ANALOGS FOR ANTIVIRAL TREATMENT” (priority 2010, published 2014)
# pEC50, pIC50: −log10 of the molar value.
# Columns and labels:
# [1] = tested on: Influenza A virus (A/Hong Kong/8/68); experiment: Influenza A antiviral assay (H3N2), virus-induced cytopathic effect in MDCK cells; assay type: cell-based; conditions: 120 h, Influenza A/Hong Kong/8/68 (H3N2), MOI 0.03, five day incubation, Cell-titer Glo, read-out: EC50 against the influenza virus
# Protocol: MDCK cells were seeded in 96-well plates at a density of 1e5 cells per well in 100 μL of MEM culture medium with 10% FBS. Compounds were 3-fold serially diluted in complete MEM culture medium, with 100 μM as the highest concentration. Each concentration was tested in duplicate. Prior to infection, cells were washed once with 200 μL serum-free MEM. Influenza A virus (A/Hong Kong/8/68, Advanced Biotechnology Inc, Columbia, Md.) was added to cells at MOI 0.03 in 100 ul serum-free MEM containing 27 U/mL trypsin (Worthington, Lakewood, N.J.). After 10 minute incubation at room temperature, 100 μL compound dilutions were added to infected cells for a final volume of 200 μL. After five day incubation at 37° C., virus-induced cytopathic effect was determined by adding Cell-titer Glo viability reagents (Promega, Madison, Wis.) and measuring luminescence on a Victor Luminescence plate reader (Perkin-Elmer, Waltham, Mass.). The cytotoxicity of the compounds in MDCK cells was determined in replicate plates in the same way as in antiviral activity assays, except no virus was added to the cell culture. EC50 and CC50 values were calculated by non-linear regression of multiple data sets using XLFit software (IBDS, Guildford, UK).
# [2] = target: Influenza RNA polymerase (Influenza A/PR8/34 (H1N1) virus lysate) (Influenza A virus, UniProt P03431); experiment: Influenza RNA polymerase inhibition (IC50) assay; assay type: biochemical
# Sequence of Influenza RNA polymerase (Influenza A/PR8/34 (H1N1) virus lysate) (P03431 whole entry, looked up): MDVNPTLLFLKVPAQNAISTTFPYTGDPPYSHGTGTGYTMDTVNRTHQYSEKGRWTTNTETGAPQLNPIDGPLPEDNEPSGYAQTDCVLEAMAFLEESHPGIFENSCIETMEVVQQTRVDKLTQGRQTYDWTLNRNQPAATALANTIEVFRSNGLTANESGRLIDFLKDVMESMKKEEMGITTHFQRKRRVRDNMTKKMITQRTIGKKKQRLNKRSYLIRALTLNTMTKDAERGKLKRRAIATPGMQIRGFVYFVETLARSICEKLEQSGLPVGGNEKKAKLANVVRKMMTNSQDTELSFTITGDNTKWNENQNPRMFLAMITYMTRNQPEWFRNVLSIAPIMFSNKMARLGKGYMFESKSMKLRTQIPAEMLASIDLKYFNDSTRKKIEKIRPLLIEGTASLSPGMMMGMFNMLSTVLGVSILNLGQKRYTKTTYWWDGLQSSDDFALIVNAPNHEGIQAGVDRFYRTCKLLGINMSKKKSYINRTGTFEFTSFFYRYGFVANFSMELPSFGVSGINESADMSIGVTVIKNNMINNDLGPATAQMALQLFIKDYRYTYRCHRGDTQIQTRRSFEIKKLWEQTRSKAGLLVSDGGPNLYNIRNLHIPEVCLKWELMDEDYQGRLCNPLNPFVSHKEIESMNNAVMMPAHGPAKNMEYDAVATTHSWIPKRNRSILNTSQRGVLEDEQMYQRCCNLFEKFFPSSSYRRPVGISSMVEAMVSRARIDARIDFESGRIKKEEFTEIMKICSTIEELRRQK
Compound,pEC50 [1],pIC50 [2]
"Nc1ncnn2c([C@@H]3O[C@H](CO)[C@@H](O)[C@H]3F)ccc12 [Compound 1, (2R,3R,4R,5S)-5-(4-aminopyrrolo[1,2-f][1,2,4]triazin-7-yl)-4-fluoro-2-(hydroxymethyl)-tetrahydrofuran-3-ol]",4.90 to 4.98,
"C[C@@]1(c2ccc3c(N)ncnn23)O[C@H](COP(=O)(O)OP(=O)(O)OP(=O)(O)O)[C@@H](O)[C@H]1F [Compound 9, ((2R,3R,4R,5S)-5-(4-aminopyrrolo[1,2-f][1,2,4]triazin-7-yl)-4-fluoro-3-hydroxy-5-methyltetrahydrofuran-2-yl)methyl tetrahydrogen triphosphate]",,5.53 to 5.68
"N#C[C@@]1(c2ccc3c(N)ncnn23)O[C@H](COP(=O)(O)OP(=O)(O)OP(=O)(O)O)[C@@H](O)[C@H]1F [Compound 10, ((2R,3R,4R,5R)-5-(4-aminopyrrolo[1,2-f][1,2,4]triazin-7-yl-5-cyano-4-fluoro-3-hydroxytetrahydrofuran-2-yl)methyltetrahydrogen triphosphate]",,3.94 to 4.31
"Nc1ncnn2c([C@@H]3O[C@H](COP(=O)(O)OP(=O)(O)OP(=O)(O)O)[C@@H](O)[C@H]3F)ccc12 [Compound 11, ((2R,3R,4R,5S)-5-(4-aminopyrrolo[1,2-f][1,2,4]triazin-7-yl-4-fluoro-3-hydroxy-tetrahydrofuran-2-yl)methyltetrahydrogen triphosphate]",,5.80 to 6.02
"Nc1nc(F)nn2c([C@@H]3O[C@H](COP(=O)(O)OP(=O)(O)OP(=O)(O)O)[C@@H](O)[C@H]3F)ccc12 [Compound 21, ((2R,3R,4R,5S)-5-(4-amino-2-fluoropyrrolo[1,2-f][1,2,4]triazin-7-yl)-4-fluoro-3-hydroxytetrahydrofuran-2-yl)methyl tetrahydrogen triphosphate]",,5.73 to 6.01
